Results from PMC10831786 (Virus Research, 2024).
Values joined by “and” are separate entries in the source; they are usually repeats but may differ in a detail not shown here. Identical values can stand only once. Counter-ions that a name gives are not always drawn. Like-named read-outs stand apart in the source and are kept apart here.

What was measured:
[1] = molecular target: T1, l-type calcium current ICaL (Cavia porcellus, UniProt O35505); experiment: Patch clamp recording of ICaL in guinea pig ventricular myocytes; assay type: cell-based; details: for IC50: GP cardiomyocytes, read-out: IC50, calcium channel (ICaL) blocking activity; for Kd: guinea pig ventricular myocytes, Langmuir isotherm, 5-60 μM, read-out: KD for inhibition of ICaL
T1 construct: from tissue; host or cells: freshly dissociated guinea pig ventricular myocytes

[2] = tested on: protein synthesis in Vero E6 cells; experiment: Puromycin pulse labeling, protein synthesis in cultured Vero E6 cells; assay type: cell-based, African green monkey; details: for IC50: Chlorocebus sabaeus
Procedure: Vero E6 cells were seeded at 30,000 cells per cm^2 in 6-well plates. […] Control experiments were conducted in medium alone and medium containing cycloheximide or DMSO. After 12 min, cells were washed with 37° PBS and then allowed to recover in drug-free 2 % FBS-EMEM for 30 min. Cell pellets, collected by trypsinization and centrifugation for 5 min at 5 000 rpm at 4 °C, were re-suspended in ice-cold PBS and centrifugation was repeated. Collected cells were stored at −80 °C.
Antibodies used were anti-puromycin monoclonal (TFS; MABE34), goat anti-mouse-HRP (TFS, Invitrogen; G21040), rabbit anti-β-actin (Cell Signaling, 4967S, lot 9) and HRP-conjugated goat-anti-rabbit (Cell Signaling, 7074S, lot 27). Protein extract and immunoblotting methods were done by standard methods reported here as Supplementary Information.
Vero E6 cells were seeded at 30,000 cells per cm^2 in 6-well plates. […] Puromycin labelling protocols have been well established by other laboratories and a general review of the methods has been published^79. Control experiments were conducted in medium alone and medium containing cycloheximide or DMSO. Following incubation with puromycin for 12 min, the medium was quickly removed and cells were washed with warm PBS and then allowed to recover in drug-free 2% FBS-EMEM for 30 min. Cell pellets, collected by trypsinization and centrifugation for 5 min at 5 000 rpm at 4°C, were re-suspended in ice-cold PBS and the centrifugation was repeated. Collected cells were stored at -80°C until subjected to the protein preparation as noted below.
Defrosted cell pellets were re-suspended in 120 µl of RIPA (radio-immunoprecipitation) buffer (Sigma; R0278) containing 7 µl of protease inhibitors (Sigma; P8340). Samples were incubated on ice for 40 min with occasional gentle mixing. Cell debris was removed by a 20 min centrifugation at 16,000 g at 4°C and supernatants were stored at -80°C. Protein was measured by the Pierce^TM bicinchoninic acid (BCA) assay (Thermo Fisher Scientific [TFS], MA, USA; 23250), using bovine serum albumin as a standard, according to protocols recommended by the manufacturer.
For immunoblotting, 10 µg of protein was combined with Laemmli buffer containing 10% β-mercaptoethanol, heated at 95°C for 5 min and loaded on 4-20% Mini-PROTEAN® TGX™ precast protein gels. Samples were resolved by electrophoresis in Tris-Gly-SDS buffer and transferred to nitrocellulose membranes. Transfer was conducted in Tris-Gly buffer containing 20% methanol at 4-6 V/cm^2 for one hour. Membranes were blocked in 10 mM sodium phosphate buffer containing 150 mM NaCl (pH 7.8), 5% milk and 0.1% TWEEN20 (PBST) at room temperature for at least one hour, and then incubated overnight with primary anti-puromycin antibodies (TFS; MABE343 mouse monoclonal antibodies clone 12D10; 1:12,500) at 4°C. Membranes were washed for five minutes three times in PBST and incubated with secondary goat anti-mouse horseradish peroxidase (HRP) -conjugated antibodies (TFS, Invitrogen; G21040; 1:25,000) for 90 min. After three more rounds of washing as above, membranes were incubated with an HRP substrate (TFS; 34077) for one minute and chemoluminescence was visualized by exposing membranes to film for 1, 2, 5, 10 and 30 min.
For β-actin staining, the same membranes used for puromycin immunostaining were washed four times, 5 min each, in 20 mM Tris-buffered saline containing 500 mM sodium chloride (pH 7.5) and 0.1% TWEEN20 (TBST) and stripped by two rounds of 20 and 10 min washes at 50°C in glycine buffer (pH 2.2) containing 0.1 % SDS (W/V) and 1% TWEEN20. Membranes were then washed at room temperature with PBS (3x10 min) and PBST (2x5min). Blocking, primary (1:4,000) and secondary (1:5,000) antibody staining was conducted as above. Primary rabbit anti-β-actin antibodies were obtained from Cell Signaling (4967S, lot 9) and secondary HRP-conjugated goat-anti-rabbit antibodies were from the same company (7074S, lot 27). […]

Vero E6 cells = experiment: MTS assay, growth inhibition and toxicity in non-infected Vero E6 cells; assay type: cell-based, African green monkey; details: for Concentrations at which drug is cytotoxic: Vero E6, MTS
Procedure: (§1) Detailed methods are provided in Supplementary Information.
(§2) Vero E6 and BEC-hACE2 cells were grown to 70-80% density in their maintenance media and exposed to various concentrations of ipecac alkaloids (0.0125 – 200 µM) under standard culture conditions for 48-72 h and 24 h, respectively. Controls with varying amounts of DMSO and no DMSO were included also. Vero E6 cells were incubated with drugs in 2% FBS-EMEM, while BEC-HACE2 cells were grown and treated in complete PCS-300-03 medium with supplements. Similar treatments were also conducted using fully confluent non-growing BEC-hACE2 cells. At the end of the exposure period, MTS reagent (Promega G3580) was added at 1/5th of the medium volume and color was allowed to develop by incubation of the plates for an hour in a cell culture incubator. To stop reactions, SDS was added to a final concentration of 2% and optical density of samples was measured at 450 or 490 nm, depending on the model of spectrophotometer (PharmaciaBiotech, NJ, USA; UV spectrophotometer, model Ultrospec2000) or plate reader (Molecular Devices, CA, USA; model Filter Max F5 Multi-mode microplate reader) available at the time of experiment.

[3] = tested on: protein synthesis in BEC-hACE2 cells; experiment: Puromycin pulse labeling, protein synthesis in cultured BEC-hACE2 cells; assay type: cell-based, human; details: for inhibition at 1 µM: BEC-hACE2, 1 μM
BEC-hACE2 cells = experiment: MTS assay, growth inhibition and toxicity in non-infected BEC-hACE2 cells; assay type: cell-based, human; details: for MTS, TGI (beginning of the plateau): BEC-hACE2, 24 h
Procedure: as §1, §2

[4] = Vero C1008, read-out: IC50, host protein synthesis
[5] = Vero C1008, Vero E6 cells, 1 h exposure, puromycin labeling, read-out: 50 % inhibitory activities, protein synthesis
[6] = Homo sapiens, read-out: Protein synthesis inhibition,%

T1 sequence (O35505 whole entry): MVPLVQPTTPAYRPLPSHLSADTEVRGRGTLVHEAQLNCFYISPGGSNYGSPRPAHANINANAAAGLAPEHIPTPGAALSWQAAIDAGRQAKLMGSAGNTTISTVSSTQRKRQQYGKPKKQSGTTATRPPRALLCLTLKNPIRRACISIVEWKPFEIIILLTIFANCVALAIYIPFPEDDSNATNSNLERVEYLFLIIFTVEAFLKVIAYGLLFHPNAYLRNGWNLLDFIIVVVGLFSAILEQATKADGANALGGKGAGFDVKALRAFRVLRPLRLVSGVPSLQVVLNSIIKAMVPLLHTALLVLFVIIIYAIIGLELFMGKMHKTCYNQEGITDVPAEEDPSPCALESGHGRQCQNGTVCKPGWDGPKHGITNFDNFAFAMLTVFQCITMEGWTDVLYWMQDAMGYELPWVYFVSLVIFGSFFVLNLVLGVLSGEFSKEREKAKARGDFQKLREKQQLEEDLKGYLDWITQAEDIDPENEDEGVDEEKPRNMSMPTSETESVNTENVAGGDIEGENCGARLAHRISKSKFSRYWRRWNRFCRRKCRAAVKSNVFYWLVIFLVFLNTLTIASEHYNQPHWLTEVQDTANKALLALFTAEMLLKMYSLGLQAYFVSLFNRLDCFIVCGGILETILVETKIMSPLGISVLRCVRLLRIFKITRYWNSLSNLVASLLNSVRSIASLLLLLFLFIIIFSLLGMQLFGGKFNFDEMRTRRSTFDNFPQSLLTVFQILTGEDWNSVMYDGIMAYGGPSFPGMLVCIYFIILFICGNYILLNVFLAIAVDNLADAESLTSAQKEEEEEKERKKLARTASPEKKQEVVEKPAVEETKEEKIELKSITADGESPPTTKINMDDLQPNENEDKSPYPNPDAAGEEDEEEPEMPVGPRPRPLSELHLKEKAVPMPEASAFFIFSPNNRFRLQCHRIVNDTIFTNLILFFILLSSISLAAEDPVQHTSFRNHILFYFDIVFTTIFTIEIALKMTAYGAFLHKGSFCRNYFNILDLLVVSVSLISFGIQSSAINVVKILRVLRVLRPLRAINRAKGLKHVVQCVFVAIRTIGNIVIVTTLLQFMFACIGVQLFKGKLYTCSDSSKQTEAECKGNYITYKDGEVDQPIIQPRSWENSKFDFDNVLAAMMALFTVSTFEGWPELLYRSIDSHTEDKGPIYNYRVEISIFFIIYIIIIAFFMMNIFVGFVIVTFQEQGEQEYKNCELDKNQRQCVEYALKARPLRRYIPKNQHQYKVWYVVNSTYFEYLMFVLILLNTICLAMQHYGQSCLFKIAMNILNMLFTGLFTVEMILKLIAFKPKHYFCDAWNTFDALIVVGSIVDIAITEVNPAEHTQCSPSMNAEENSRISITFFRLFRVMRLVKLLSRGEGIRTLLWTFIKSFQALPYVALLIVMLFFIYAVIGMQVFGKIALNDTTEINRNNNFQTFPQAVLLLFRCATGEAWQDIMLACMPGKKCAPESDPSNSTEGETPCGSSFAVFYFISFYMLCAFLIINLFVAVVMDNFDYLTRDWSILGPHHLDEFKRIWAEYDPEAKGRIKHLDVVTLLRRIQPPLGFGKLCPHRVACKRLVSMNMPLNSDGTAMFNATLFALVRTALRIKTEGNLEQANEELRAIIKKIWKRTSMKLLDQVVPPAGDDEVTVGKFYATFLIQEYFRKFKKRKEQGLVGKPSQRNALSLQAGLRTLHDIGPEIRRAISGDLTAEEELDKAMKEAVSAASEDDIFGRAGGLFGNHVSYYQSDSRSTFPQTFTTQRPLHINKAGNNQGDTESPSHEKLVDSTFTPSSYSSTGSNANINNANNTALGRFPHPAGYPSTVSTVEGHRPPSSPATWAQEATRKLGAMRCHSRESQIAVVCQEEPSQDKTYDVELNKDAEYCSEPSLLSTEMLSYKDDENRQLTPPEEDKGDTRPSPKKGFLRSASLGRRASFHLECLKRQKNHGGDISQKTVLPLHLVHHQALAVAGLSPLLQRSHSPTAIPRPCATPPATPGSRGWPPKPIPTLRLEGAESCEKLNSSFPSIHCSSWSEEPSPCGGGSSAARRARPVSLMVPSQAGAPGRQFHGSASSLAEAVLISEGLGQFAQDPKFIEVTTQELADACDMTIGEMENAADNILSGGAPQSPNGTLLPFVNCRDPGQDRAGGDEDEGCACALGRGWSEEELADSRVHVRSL

| SMILES | IC50 [1] | Kd [1] [µM] | IC50 [2, 4] [µM] | IC50 [2, 5] [µM] | Protein synthesis,% ([2]; Vero E6, 0.1 μM) [%] | Protein synthesis, puromycilation signal ([2]; Vero E6, > 10 μM) | Concentration above which inhibition of puromycilation is not sustained ([2]; Vero E6 cells) [µM] | Concentrations at which drug is cytotoxic (Vero E6 cells) | inhibition at 1 µM ([3]; Homo sapiens) [%] | MTS, TGI (beginning of the plateau) (BEC-hACE2 cells) [µM] | MTS, nature of the effect (BEC-hACE2 cells; BEC-hACE2, at 100 μM) | further results |
| --- | --- | --- | --- | --- | --- | --- | --- | --- | --- | --- | --- | --- |
| CCC1=C(C[C@H]2NCCc3cc(OC)c(OC)cc32)C[C@H]2c3cc(OC)c(OC)cc3CCN2C1 [DHE4, 4H-Benzo[a]quinolizine, 3-ethyl-1,6,7,11b-tetrahydro-9,10-dimethoxy-2-[[(1R)-1,2,3,4-tetrahydro-6,7-dimethoxy-1-isoquinolinyl]methyl]-, (11bS)-] | 40 to 60 µM | 54 | 0.15 to 0.17 | ~0.21 | 20 | signal increase | > 10 | higher than 10 μM | 97 | 0.125 | cytostatic | Protein synthesis,% ([2]; Vero E6, 0.01 μM): 15%; MTS, decrease (BEC-hACE2 cells; BEC-hACE2, at 100 μM): 40%; MTS, CC50 (50 % effect) (BEC-hACE2 cells; sub-confluent BEC-hACE2, 24 h): Effect not reached |
| CC[C@H]1CN2CCc3cc(OC)c(OC)cc3[C@@H]2C[C@@H]1C[C@H]1NCCc2cc(OC)c(OC)cc21 [Emetine, 2H-Benzoaquinolizine, 3-ethyl-1,3,4,6,7,11b-hexahydro-9,10-dimethoxy-2-(1R)-1,2,3,4-tetrahydro-6,7-dimethoxy-1-isoquinolinylmethyl-, dihydrochloride, (2S,3R,11bS)-, reference compound] | ~57 µM and 40 to 60 µM | 57 | 0.15 to 0.17 | ~0.11 | 50 | signal increase | > 10 | higher than 10 μM | 97 | 0.125 | cytostatic | Impact on ICaL ([1]; 0.5 μM): 1%; inhibition at 5 µM ([1]; 5 μM): ~10%; Estimated reduction in ICaL ([1]; GP ventricular myocytes, assuming 25 µM): over thirty-three percent; Protein synthesis,% ([2]; Vero E6, 0.01 μM, listed as EMT): 20%; Protein synthesis,% ([2]; Vero E6, 0.03 μM): 50%; Protein synthesis,% ([2]; Vero E6, 1 μM): terminating all translation activity; Protein synthesis,% ([2]; Vero E6, 1 μM, listed as EMT): 100%; IC50 ([3]; Homo sapiens, read-out: IC50, protein synthesis): ~0.2 µM; inhibition at 0.05 µM [3, 6]: 7%; inhibition at 0.1 µM [3, 6]: 30%; inhibition at 0.3 µM [3, 6]: 80%; inhibition at 1000 µM [3, 6]: 97%; inhibition at 0.5 µM ([3]; Homo sapiens, 0.5 μM, read-out: Inhibition of translation activity in host cells): ≥ 90%; inhibition at 10 µM ([3]; Homo sapiens, BEC-hACE2, 10 μM): 100%; IC50 ([3]; Homo sapiens, BEC-hACE2, read-out: IC50, protein synthesis inhibition): ~0.12 µM |
| CC[C@H]1CN2CCc3cc(OC)c(OC)cc3[C@@H]2C[C@@H]1C[C@@H]1NCCc2cc(OC)c(OC)cc21.Cl.Cl [Isoemetine, 2H-Benzoaquinolizine, 3-ethyl-1,3,4,6,7,11b-hexahydro-9,10-dimethoxy-2-(1S)-1,2,3,4-tetrahydro-6,7-dimethoxy-1-isoquinolinylmethyl-, dihydrochloride, (2S,3R,11bS)-] | – | 42 | – | – | 0 | – | > 1 | – | – | – | cytotoxic | Protein synthesis, puromycilation signal ([2]; Vero E6, >1 μM): signal increase; CC50 (Vero E6 cells; MTS, 72 h, read-out: Fifty percent effect (CC50) in non-infected Vero E6): 114 ± 13.1 µM; Protein synthesis inhibition,% ([3]; BEC-hACE2, 10 μM, 10 µM): 20%; Protein synthesis inhibition,% ([3]; BEC-hACE2, 10 μM, listed as ISOEMT, 10 µM): 18%; Protein synthesis inhibition,% ([3]; BEC-hACE2, 30 μM, 30 µM): 50%; Protein synthesis inhibition,% ([3]; BEC-hACE2, 30 μM, listed as ISOEMT, 30 µM): 47%; Concentrations at which cells are affected (MTS) (BEC-hACE2 cells; sub-confluent BEC-hACE2, 24 h): above 50 μM; CC50 (BEC-hACE2 cells; sub-confluent BEC-hACE2, 24 h, read-out: MTS, CC50 (50 % effect)): 100 µM |
